The assay concerns PC12 cells. The assay is described as follows: Microchip amperometric detection of electrically evoked exocytotic catecholamine release. In kind it is cell-based, rat.

Description: Cells were cultured in suspension in 75 mm^2 tissue culture flasks with RPMI 1640 (Invitrogen, Carlsbad, Calif.) cell culture media supplemented with 15% horse serum (Invitrogen), 2.5% fetal bovine serum (Invitrogen) and 0.02 mg/ml gentamicin (Invitrogen). Flasks were kept in an incubator at 37° C. with 5% CO2. Media was refreshed every 3-4 days, retaining 10% of the existing media each time. Cells were mechanically agitated to break up cell clusters through repeated washing through a pipettor tip. Additional separation was achieved through weekly, overnight treatment of the cells in 1 mM ethylene glycol tetraacetic acid (EGTA, Sigma-Aldrich, St. Louis, Mo.) with subsequent washing and trituration.
Prior to use, cells were transferred to Locke's buffer consisting of 154 mM NaCl, 5.6 mM KCl, 3.6 mM NaHCO3, 2.3 mM CaCl2, 5.6 mM glucose, and 5 mM Hepes (pH 7.4). An aliquot of the solution was immediately transferred to the MEMS device via manual pipette aspiration. […]
Neurotransmitter release from the PC12 cells was measured using a three electrode arrangement with a Au WE (FIGS. 3A and 3B, WE), a Au counter electrode (FIGS. 3A and 3B, CE) and silver/silver chloride (Ag/AgCl) reference electrode (RE) with all controlled by a NPI VA-10 potentiostat (National Precision Instruments (NPI), Tamm, Germany). […]

`C[C@@H]1C[C@H]2[C@@H]3CCC4=CC(=O)C=C[C@]4(C)[C@@]3(F)[C@@H](O)C[C@]2(C)[C@@]1(O)C(=O)CO` [dexamethasone]: the “cube root of quantal yield” value (PC12 cells differentiated with 5 μM dexamethasone, n=209 cells, k=25,463 spikes, WE +700 mV vs Ag/AgCl) was determined as 6.6±0.08 zmol^1/3. For the molecule `C=C1[C@@H](C)[C@H]2[C@H](Cc3ccccc3)NC(=O)[C@]23[C@H](OC(C)=O)/C=C/[C@@](C)(O)C(=O)[C@@H](C)C/C=C/[C@H]3[C@@H]1O` [cytochalasin-D], under “population of PC12 cells exposed to cytochalasin-D, data not shown”, the “exocytosis activity after exposure to the actin-disrupting agent” value was “did not block”.

The values are drawn from patent publication US20130130299A1, “ELECT[…] CYTOMETRY” (University of Utah Research Foundation, priority 2009, published 2013).
